Test results from patent US7521478B2, “Total synthesis of myriaporones” (Pharma Mar, S.A.U., priority 2002, dated 2009).
Read-outs that look alike come from different tables or passages of the source.

How the values were obtained:
Type in all cases: cell-based
DU-145 = assay: Inhibition of cell growth by colorimetric SRB assay, DU-145; details: Homo sapiens, DU-145, 48 hours exposure; for CC50: cell killing, read-out: LC50 (the source's name); for IC (total growth inhibition): read-out: TGI
From the text: (§1) The finality of these assays is to interrupt the growth of a “in vitro” tumor cell culture by means a continued exhibition of the cells to the sample to be testing.
(§2) Inhibition of Cell Growth by Colorimetric Assay.
(§3) A colorimetric type of assay, using sulforhodamine B (SRB) reaction has been adapted for a quantitative measurement of cell growth and viability (following the technique described by P. A. Skehan, et al., J. Natl. CancerInst. 1990, 82, 1107-1112).
(§4) This form of assay employs 96 well cell culture microplates of 9 mm diameter (T. Mosmann et al., J. of Immuological Methods 1983, 65, 55-63; G. T. Faircloth et al., J. of Tissue and Culture Methods 1988, 11, 201-205). Most of the cell lines are obtained from American Type Culture Collection (ATCC) derived from different human cancer types.
(§5) Cells are maintained in RPMI 1640 10% FBS, supplemented with 0.1 g/L penicillin and 0.1 g/L streptomycin sulfate and then incubated at 37° C., 5% CO2 and 98% humidity. For the experiments, cells were harvested from subconfluent cultures using trypsin and resuspended in fresh medium before plating.
(§6) Cells are seeded in 96 well microtiter plates, at 5×10^3 cells per well in aliquots of 195 μL medium, and they are allowed to attach to the plate surface by growing in drug free medium for 18 hours. Afterward, samples are added in aliquots of 5 μL in a ranging from 10 to 10^−8 μg/mL, dissolved in DMSO/EtOH/PBS (0.5:0.5:99). After 48 hours exposure, the antitumor effect are measured by the SRB methodology: cells are fixed by adding 50 μL of cold 50% (wt/vol) trichloroacetic acid (TCA) and incubated for 60 minutes at 4° C. Plates are washed with deionizer water and dried. One hundred μl of SRB solution (0.4% wt/vol in 1% acetic acid) is added to each microliter well and incubated for 10 minutes at room temperature. Unbound SRB is removed by washing with 1% acetic acid. Plates are air dried and bound stain is solubilized with Tris buffer. Optical densities are read on a automated spectrophotometric plate reader at a single wavelength of 490 nm.
(§7) The values for mean +/−SD of data from triplicate wells are calculated. Some parameters for cellular responses can be calculated: GI=growth inhibition, TGI=total growth inhibition (cytostatic effect) and LC=cell killing (cytotoxic effect).

LNCaP = assay: Inhibition of cell growth by colorimetric SRB assay, LN-caP; details: Homo sapiens, LN-caP, 48 hours exposure; for CC50: cell killing, read-out: LC50 (the source's name); for IC (total growth inhibition): read-out: TGI
From the text: as §1, §2, §3, §4, §5, §6, §7

IGROV = assay: Inhibition of cell growth by colorimetric SRB assay, IGROV; details: Homo sapiens, 48 hours exposure; for CC50: cell killing, read-out: LC50 (the source's name); for IC (total growth inhibition): read-out: TGI
From the text: as §1, §2, §3, §4, §5, §6, §7

IGROV-ET = assay: Inhibition of cell growth by colorimetric SRB assay, IGROV-ET; details: Homo sapiens, IGROV-ET, 48 hours exposure; for CC50: cell killing, read-out: LC50 (the source's name); for IC (total growth inhibition): read-out: TGI
From the text: as §1, §2, §3, §4, §5, §6, §7

SK-BR-3 = assay: Inhibition of cell growth by colorimetric SRB assay, SK-BR-3; details: SK-BR-3, 48 hours exposure
From the text: as §1, §2, §3, §4, §5, §6, §7

SK-MEL-28 = assay: Inhibition of cell growth by colorimetric SRB assay, MEL-28; details: Homo sapiens, SK-MEL-28, MEL-28, 48 hours exposure; for CC50: cell killing, read-out: LC50 (the source's name); for IC (total growth inhibition): read-out: TGI
From the text: as §1, §2, §3, §4, §5, §6, §7

A-549 = assay: Inhibition of cell growth by colorimetric SRB assay, A-549; details: Homo sapiens, A549, A-549, 48 hours exposure; for CC50: cell killing, read-out: LC50 (the source's name); for IC (total growth inhibition): read-out: TGI
From the text: as §1, §2, §3, §4, §5, §6, §7

K-562 = assay: Inhibition of cell growth by colorimetric SRB assay, K-562; details: Homo sapiens, K562, K-562, 48 hours exposure; for CC50: cell killing, read-out: LC50 (the source's name); for IC (total growth inhibition): read-out: TGI
From the text: as §1, §2, §3, §4, §5, §6, §7

PANC-1 = assay: Inhibition of cell growth by colorimetric SRB assay, PANC-1; details: Homo sapiens, PANC-1, 48 hours exposure; for CC50: cell killing, read-out: LC50 (the source's name); for IC (total growth inhibition): read-out: TGI
From the text: as §1, §2, §3, §4, §5, §6, §7

HT-29 = assay: Inhibition of cell growth by colorimetric SRB assay, HT-29; details: Homo sapiens, HT-29, 48 hours exposure; for CC50: cell killing, read-out: LC50 (the source's name); for IC (total growth inhibition): read-out: TGI
From the text: as §1, §2, §3, §4, §5, §6, §7

LoVo = assay: Inhibition of cell growth by colorimetric SRB assay, LOVO; details: Homo sapiens, LOVO, 48 hours exposure; for LC50: cell killing, read-out: LC50; for IC (total growth inhibition): read-out: TGI
From the text: as §1, §2, §3, §4, §5, §6, §7

LoVo-Dox = assay: Inhibition of cell growth by colorimetric SRB assay, LOVO-DOX; details: Homo sapiens, LOVO-DOX, 48 hours exposure; for LC50 (concentration for 50% cell killing): read-out: LC50; for IC (total growth inhibition): read-out: TGI
From the text: as §1, §2, §3, §4, §5, §6, §7

HeLa = assay: Inhibition of cell growth by colorimetric SRB assay, HELA; details: Homo sapiens, HELA, 48 hours exposure; for CC50: cell killing, read-out: LC50 (the source's name); for IC (total growth inhibition): read-out: TGI
From the text: as §1, §2, §3, §4, §5, §6, §7

HeLa-APL = assay: Inhibition of cell growth by colorimetric SRB assay, HELA-APL; details: Homo sapiens; for CC50: cell killing, read-out: LC50 (the source's name); for IC (total growth inhibition): read-out: TGI
From the text: as §1, §2, §3, §4, §5, §6, §7

C/C=C\[C@H](C)[C@H]1O[C@@]1(C)[C@@H](O)[C@@H](CO)C(=O)[C@H](CO)[C@@H](O)CC(=O)CC [3a + 4a]
GI50 (DU-145): 0.0631 µM
CC50 (DU-145): 2.03 µM
IC (total growth inhibition) (DU-145): 0.403 µM
GI50 (LNCaP): 0.0819 µM
CC50 (LNCaP): 5.32 µM
IC (total growth inhibition) (LNCaP): 0.553 µM
GI50 (IGROV): 0.073 µM
CC50 (IGROV): 3.92 µM
IC (total growth inhibition) (IGROV): 0.376 µM
GI50 (IGROV-ET): 0.1 µM
CC50 (IGROV-ET): 26.8 µM
IC (total growth inhibition) (IGROV-ET): 1.07 µM
GI50 (SK-BR-3; Homo sapiens): 0.0303 µM
CC50 (SK-BR-3; Homo sapiens, cell killing, read-out: LC50 (the source's name)): 5.34 µM
TGI (SK-BR-3; total growth inhibition): 4.75E−07 Molar
GI50 (SK-MEL-28): 0.0754 µM
CC50 (SK-MEL-28): 12 µM
IC (total growth inhibition) (SK-MEL-28): 0.832 µM
GI50 (A-549): 0.144 µM
CC50 (A-549): 15.6 µM
IC (total growth inhibition) (A-549): 2.59 µM
GI50 (K-562): 0.521 µM
CC50 (K-562): 8.4 µM
IC (total growth inhibition) (K-562): 1.46 µM
GI50 (PANC-1): 0.0897 µM
CC50 (PANC-1): 26.8 µM
IC (total growth inhibition) (PANC-1): 2.95 µM
GI50 (HT-29): 0.0601 µM
CC50 (HT-29): 26.8 µM
IC (total growth inhibition) (HT-29): 1.18 µM
GI50 (LoVo): 0.0822 µM
LC50 (LoVo): 17.7 µM
IC (total growth inhibition) (LoVo): 1.35 µM
GI50 (LoVo-Dox): 0.152 µM
LC50 (concentration for 50% cell killing) (LoVo-Dox): 26.8 µM
IC (total growth inhibition) (LoVo-Dox): 1.36 µM
GI50 (HeLa): 0.0728 µM
CC50 (HeLa): 7.14 µM
IC (total growth inhibition) (HeLa): 0.55 µM
CC50 (HeLa-APL; HELA-APL, 48 hours exposure): 14.7 µM
GI50 (HeLa-APL; HELA-APL, 48 hours exposure, read-out: GI50): 0.0733 µM
IC (total growth inhibition) (HeLa-APL; HELA-APL, 48 hours exposure, total growth inhibition): 0.983 µM

C/C=C\[C@H](C)[C@H]1OC1(C)[C@@H](O[Si](C)(C)C(C)(C)C)[C@@H](COC(C)=O)C(=O)[C@H](COC(C)=O)[C@H](O)CC(=O)CC (stereo partly drawn) [Compound 44]
GI50 (DU-145): 4.99 µM
CC50 (DU-145): 17.5 µM
IC (total growth inhibition) (DU-145): 10.4 µM
GI50 (LNCaP): 3.77 µM
CC50 (LNCaP): 16.6 µM
IC (total growth inhibition) (LNCaP): 7.88 µM
GI50 (IGROV): 4.13 µM
CC50 (IGROV): 14.2 µM
IC (total growth inhibition) (IGROV): 7.67 µM
GI50 (IGROV-ET): 4.15 µM
CC50 (IGROV-ET): 15.8 µM
IC (total growth inhibition) (IGROV-ET): 8.09 µM
GI50 (SK-MEL-28): 3.84 µM
CC50 (SK-MEL-28): 12.6 µM
IC (total growth inhibition) (SK-MEL-28): 6.96 µM
GI50 (A-549): 4.01 µM
CC50 (A-549): 15.4 µM
IC (total growth inhibition) (A-549): 7.87 µM
GI50 (K-562): 6.1 µM
CC50 (K-562): 17.5 µM
IC (total growth inhibition) (K-562): 11.4 µM
GI50 (PANC-1): 3.73 µM
CC50 (PANC-1): 13.8 µM
IC (total growth inhibition) (PANC-1): 7.2 µM
GI50 (HT-29): 6.22 µM
CC50 (HT-29): 17 µM
IC (total growth inhibition) (HT-29): 17.5 µM
GI50 (LoVo): 4.05 µM
LC50 (LoVo): 17.5 µM
IC (total growth inhibition) (LoVo): 8.99 µM
GI50 (LoVo-Dox): 4.27 µM
LC50 (concentration for 50% cell killing) (LoVo-Dox): 17.5 µM
IC (total growth inhibition) (LoVo-Dox): 8.9 µM
GI50 (HeLa): 3.91 µM
CC50 (HeLa): 14.7 µM
IC (total growth inhibition) (HeLa): 7.59 µM
GI50 (HeLa-APL; 48 h): 3.77 µM
IC (total growth inhibition) (HeLa-APL; 48 h): 9.83 µM
CC50 (HeLa-APL; HELA-APL, 48 hours exposure): 17.5 µM
